According to article PMC6233196 (Nature Communications, 2018):
Entries after “also recorded” stand apart in the source; their conditions may differ.

Key:
GluN1 ABD = test system: GluN1 ABD; parameters: method as in PMID 16641235; settings: cited from earlier work; for Ki: isolated domains
GluN1/GluN3A receptors [1] = molecular target: T1, GluN1/GluN3A receptors (Rattus norvegicus, UniProt P35439+Q9R1M7); assay: Whole-cell patch-clamp of glycine currents in HEK293 cells expressing wild-type GluN1/GluN3A; settings: for Peak and steady-state current potentiation compared with CGP-78608: MDL-29951 200 nM, 7-CKA 10 µM, L-689560 1 µM pre-incubated; for Effect of reducing treatment on glycine-evoked responses: 20 min, glycine 100 µM
T1 sequence (Q9R1M7 24-1135, other chains not shown): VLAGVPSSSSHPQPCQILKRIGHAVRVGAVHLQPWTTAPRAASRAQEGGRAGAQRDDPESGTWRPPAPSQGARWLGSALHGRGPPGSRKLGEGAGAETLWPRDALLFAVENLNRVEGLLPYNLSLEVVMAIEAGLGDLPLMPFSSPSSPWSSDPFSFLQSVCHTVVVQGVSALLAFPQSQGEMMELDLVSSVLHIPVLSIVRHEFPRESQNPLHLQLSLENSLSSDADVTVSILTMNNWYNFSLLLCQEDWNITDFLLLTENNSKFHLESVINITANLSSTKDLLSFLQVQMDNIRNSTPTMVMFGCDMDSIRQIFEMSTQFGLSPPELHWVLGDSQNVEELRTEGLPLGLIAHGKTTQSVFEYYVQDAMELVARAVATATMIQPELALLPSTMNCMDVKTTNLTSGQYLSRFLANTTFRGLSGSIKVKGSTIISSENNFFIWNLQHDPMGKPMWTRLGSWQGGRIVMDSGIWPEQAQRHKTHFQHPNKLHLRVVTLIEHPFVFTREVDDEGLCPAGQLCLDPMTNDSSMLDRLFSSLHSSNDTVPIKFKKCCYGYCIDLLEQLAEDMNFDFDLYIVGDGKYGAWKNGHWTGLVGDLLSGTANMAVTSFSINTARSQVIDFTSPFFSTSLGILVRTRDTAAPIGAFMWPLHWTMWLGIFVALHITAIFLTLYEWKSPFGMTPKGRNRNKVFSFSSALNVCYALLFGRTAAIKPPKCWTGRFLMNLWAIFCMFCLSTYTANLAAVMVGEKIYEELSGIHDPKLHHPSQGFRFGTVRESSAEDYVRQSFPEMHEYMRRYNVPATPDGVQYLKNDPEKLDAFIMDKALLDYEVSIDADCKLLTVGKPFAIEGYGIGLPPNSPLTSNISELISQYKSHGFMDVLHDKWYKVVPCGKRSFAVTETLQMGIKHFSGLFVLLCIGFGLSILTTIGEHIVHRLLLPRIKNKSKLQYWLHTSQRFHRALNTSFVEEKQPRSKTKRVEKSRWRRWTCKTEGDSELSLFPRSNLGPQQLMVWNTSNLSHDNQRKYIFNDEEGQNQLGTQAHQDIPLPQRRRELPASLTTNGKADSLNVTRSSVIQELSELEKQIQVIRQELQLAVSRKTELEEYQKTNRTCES
Method: HEK293 cells were used for heterologous expression of recombinant GluN1/GluN3 receptors studied using whole-cell patch-clamp. […] Recordings were performed 24–48 h following cell transfection. The extracellular solution contained (in mM): 140 NaCl, 2.8 KCl, 1 CaCl2, 10 HEPES and 20 Sucrose (290–300 mOsm), pH adjusted to 7.3 using NaOH. […] Drugs and agonists were applied using a multi-barrel solution exchanger (RSC 200; Bio-logic). Recordings were performed at −60 mV and at room temperature. […] EC50, a and nH were set as free parameters.

[2] = molecular target: T2, GluN1-F484A/GluN3A receptors (Rattus norvegicus, UniProt P35439+Q9R1M7, F484A); assay: Whole-cell patch-clamp in HEK293 cells, GluN1-F484A mutant; assay type: cell-based; settings: CGP-78608 500 nM
T2 construct: while we record from intact (i.e. full length) membrane-imbedded receptors; expressed in transfected cells; host or cells: HEK293 cells
T2 sequence (Q9R1M7 24-1135, other chains not shown): as above
Method: (§1) Cells were transfected using polyethylenimine with GluN1, GluN3A and GFP plasmids at a 1:3:1 ratio (0.3, 0.9 and 0.3 ng/µl respectively). Recordings were performed 24–48 h following cell transfection. […] EC50, a and nH were set as free parameters.

[3] = test system: CA1 pyramidal cells of GluN3A-KO mice; assay: Glycine puffs onto voltage-clamped CA1 pyramidal cells, hippocampal slices of GluN3A-KO mice; assay type: cell-based, mouse; settings: glycine 10 mM puff
Method: (§2) Ex-vivo electrophysiological experiments were performed on coronal slices from the brains of juvenile wild-type (WT) and GluN3A-KO mice originating from the same litters (8–12 days old). Slices were prepared as described previously. Briefly, mice were anesthetized with isofluorane before decapitation. After isolation, the portion of the brain containing the hippocampus was placed in bicarbonate-buffered saline (BBS) at 2–5 °C for a few minutes. Slices (300 μm) were then cut using a 7000 smz-2 vibratome (Campden). The slicing procedure was performed in an ice-cold solution containing (in mM): 130 K^+- gluconate, 15 KCl, 0.05 EGTA, 20 Hepes, 25 glucose, 1 CaCl2, and 6 MgCl2 supplemented with DL-APV (50 µM).
(§3) CA1 neurons were recorded from both the ventral and the dorsal hippocampus. Cells were visualized with a combination of Dodt contrast, and an on-line video contrast enhancement. CA1 cells could be easily identified in the red light with which slices were visualized using a CoolSnap HQ2 CCD camera (Photometrics) run by MetaMorph (Universal Imaging). Whole-cell recordings were performed with an EPC-10 double amplifier (Heka Elektronik) run by PatchMaster (Heka). […] Series resistance was partially compensated (max 65%), whereas liquid junction potentials were not corrected. Recordings were performed at a holding potential of −60 mV.

[4] = molecular target: GluN1-C744S-C798S/GluN3A-C859S-C913S receptors (Rattus norvegicus, UniProt P35439+Q9R1M7, C744S/C798S/C859S/C913S); settings: CNQX 50 µM
Chain of GluN1-C744S-C798S/GluN3A-C859S-C913S receptors (Q9R1M7 24-1135 C859S/C913S, other chains not shown): as the sequence (Q9R1M7 24-1135, other chains not shown) above, with C836S, C890S counted along it
Method: as §1

[5] = molecular target: T3, GluN1/GluN3A receptors in CA1 pyramidal cells (Mus musculus, UniProt A2AIR5+P35438); assay: Glycine puffs onto voltage-clamped CA1 pyramidal cells, hippocampal slices of wild-type mice; assay type: cell-based
T3 construct: from tissue; host or cells: acute hippocampal slices (CA1 pyramidal cells) of P8-P12 wild-type mice
T3 sequence (A2AIR5 27-1135, other chains not shown): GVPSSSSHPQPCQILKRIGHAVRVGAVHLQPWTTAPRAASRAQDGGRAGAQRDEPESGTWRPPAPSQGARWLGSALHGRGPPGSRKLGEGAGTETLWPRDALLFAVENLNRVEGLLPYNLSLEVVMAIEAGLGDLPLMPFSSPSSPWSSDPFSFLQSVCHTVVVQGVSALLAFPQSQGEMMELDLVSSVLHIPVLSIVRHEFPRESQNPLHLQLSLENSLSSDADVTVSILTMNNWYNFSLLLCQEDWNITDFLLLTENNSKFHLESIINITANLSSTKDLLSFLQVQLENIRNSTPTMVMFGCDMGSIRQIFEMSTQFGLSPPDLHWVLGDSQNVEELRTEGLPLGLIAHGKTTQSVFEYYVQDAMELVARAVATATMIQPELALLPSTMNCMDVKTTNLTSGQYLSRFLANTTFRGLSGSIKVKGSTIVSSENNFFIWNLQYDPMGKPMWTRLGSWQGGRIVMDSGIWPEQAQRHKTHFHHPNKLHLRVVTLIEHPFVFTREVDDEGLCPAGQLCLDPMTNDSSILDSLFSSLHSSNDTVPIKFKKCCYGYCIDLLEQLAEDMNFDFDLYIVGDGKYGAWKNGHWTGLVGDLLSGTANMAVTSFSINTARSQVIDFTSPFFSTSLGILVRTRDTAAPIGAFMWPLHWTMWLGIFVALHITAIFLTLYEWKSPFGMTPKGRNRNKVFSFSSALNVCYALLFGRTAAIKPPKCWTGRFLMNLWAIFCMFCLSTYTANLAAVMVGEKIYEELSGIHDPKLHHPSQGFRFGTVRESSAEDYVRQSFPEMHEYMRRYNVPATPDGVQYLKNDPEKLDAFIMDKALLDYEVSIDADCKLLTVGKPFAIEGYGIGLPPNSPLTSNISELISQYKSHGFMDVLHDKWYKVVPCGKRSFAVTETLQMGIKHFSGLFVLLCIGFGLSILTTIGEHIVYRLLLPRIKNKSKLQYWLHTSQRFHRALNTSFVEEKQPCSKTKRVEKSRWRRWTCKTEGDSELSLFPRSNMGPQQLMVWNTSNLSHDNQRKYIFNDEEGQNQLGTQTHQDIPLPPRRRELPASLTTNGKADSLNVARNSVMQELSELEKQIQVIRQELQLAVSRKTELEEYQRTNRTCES
Method: as §2, §3

HEK cells = assay: Tolerability of reducing agent when patching HEK cells
Text: In the current work, TCEP was used on HEK cells and DTE on Xenopus oocytes.
When patching HEK cells, however, we observed that
Accordingly, we switched to TCEP,
DTE and TCEP, while both powerful to break disulfide
bonds, differ in their membrane permeability (DTE can cross membranes but not TCEP).

GluN1 (native receptors) = settings: read-out: Ki for GluN1; cited from earlier work
GluN1/GluN3A receptors [6] = molecular target: T1, GluN1/GluN3A receptors; assay: Two-electrode voltage-clamp in Xenopus oocytes expressing wild-type GluN1/GluN3A; assay type: cell-based; parameters: while we record from intact (i.e. full length) membrane-imbedded receptors; expressed in transfected cells; host or cells: HEK293 cells; settings: TCEP 5 mM, 20 min; glycine 100 µM
Method: Oocytes from Xenopus lævis (Xenopus Express, Rennes, France) were used for heterologous expression of recombinant GluN1/GluN3A receptors studied using two-electrode voltage-clamp (TEVC). TEVC recordings were performed 3–4 days following injection. […] Each oocyte was co-injected with a mixture of GluN1 and GluN3A cDNA at a concentration of 50 ng/µl and at a 1:1 ratio. The standard external solution contained (in mM): 100 NaCl, 2.5 KCl, 0.3 BaCl2, 5 HEPES, 0.01 DTPA (diethylenetriamine-pentaacetic acid), pH 7.3. […]
EC50, a and nH were set as free parameters.

GluN3A ABD = settings: read-out: Glycine affinity; isolated GluN3A ABD; cited from earlier work

SMILES: O=C(Nc1ccccc1)N[C@H]1C[C@H](C(=O)O)Nc2cc(Cl)cc(Cl)c21 (relative stereo) [L-689560, trans-2-Carboxy-5,7-dichloro-4-phenylaminocarbonylamino-1,2,3,4-tetrahydroquinoline]
- Selectivity for GluN1 vs GluN3 ABD (GluN1 ABD; binding studies on isolated agonist-binding domains): even better than CGP-78608
- Ki (GluN1 ABD): 29.3 nM
- Peak and steady-state current potentiation compared with CGP-78608 (GluN1/GluN3A receptors [1]; glycine 1 mM): orders of magnitude lower

SMILES: O=C(O)c1cc(O)c2ccc(Cl)cc2n1 [7-CKA, 7-Chlorokynureic acid]
- Ki (GluN1 ABD): 2600 nM
- Peak and steady-state current potentiation compared with CGP-78608 (GluN1/GluN3A receptors [1]; glycine 1 mM): orders of magnitude lower

SMILES: C[C@@H](NCc1cc(Br)cc2[nH]c(=O)c(=O)[nH]c12)P(=O)(O)O.Cl [CGP-78608, [(1 S)-1-[[(7-Bromo-1,2,3,4-tetrahydro-2,3-dioxo-5-quinoxalinyl)methyl]amino]ethyl]phosphonic acid hydrochloride]
- Ki (GluN1 ABD): 6.4 nM
- Potentiating effect on GluN1-F484A mutant [2]: insensitive; also recorded: almost completely abolished
- Glycine-induced inward current amplitude ([3]; bath CGP-78608 1 µM): 5.0 ± 0.6 pA

SMILES: N#Cc1cc2[nH]c(=O)c(=O)[nH]c2cc1[N+](=O)[O-] [CNQX, 6-Cyano-7-nitroquinoxaline-2,3-dione]
- Effect on tail currents following glycine removal ([4]; glycine 100 µM): inhibited the large tail currents
- Displacement of holding current ([4]; no added glycine): 22.9 ± 8.3 pA
- Outward displacement of holding current (GluN1/GluN3A receptors [1]; CNQX 50 µM, no added glycine): 0.6 ± 0.06 pA

SMILES: N[C@H](CO)C(=O)O [D-serine]
- Agonist efficacy relative to glycine (GluN1/GluN3A receptors [1]; D-serine up to 500 µM vs glycine 100 µM, CGP-78608 500 nM): lower efficacy than glycine

SMILES: O=C(O)c1cc(=O)c2c(Cl)cc(Cl)cc2[nH]1 [DCKA, 5-7-Dichlorokynurenic acid]
- Glycine-induced current amplitude ([5]; bath DCKA 500 µM in presence of CGP-78608, WT): 10.2 ± 2.7 pA

SMILES: O[C@H](CS)[C@@H](O)CS [DTE, dithioerythritol]
- Tolerability by HEK cells (HEK cells): could induce cell toxicity

SMILES: N[C@@H](CCC(=O)N[C@@H](CS)C(=O)NCC(=O)O)C(=O)O [GSH, reduced glutathione]
- Effect of reducing treatment on glycine-evoked responses (GluN1/GluN3A receptors [1]; GSH 50 mM): completely modified the current phenotype

SMILES: O=C(O)CCc1c(C(=O)O)[nH]c2cc(Cl)cc(Cl)c12 [MDL-29951, 2-carboxy-4,6-dichloro-1H-indole-3-propanoic acid]
- Ki (GluN1 (native receptors)): 140 nM
- Potentiating factors at higher concentration (GluN1/GluN3A receptors [1]; MDL-29951 2 µM, glycine 1 mM): smaller than those observed at 200 nM
- Peak and steady-state current potentiation compared with CGP-78608 (GluN1/GluN3A receptors [1]; glycine 1 mM): orders of magnitude lower

SMILES: O=C(O)CCP(CCC(=O)O)CCC(=O)O [TCEP, Tris(2-carboxyethyl)phosphine]
- Effect of reducing treatment on glycine-evoked responses (GluN1/GluN3A receptors [1]; TCEP 5 mM): drastic effects
- Effect of reducing treatment on glycine-evoked currents (GluN1/GluN3A receptors [6]): currents radically changed

SMILES: NCC(=O)O [glycine, Glycine]
- Glycine-induced inward current amplitude ([5]; glycine 10 mM puff, control conditions, WT P8-P12): 9.3 ± 1.4 pA
- Kd (GluN3A ABD): 40.4 nM
- Glycine-induced inward current amplitude ([3]; control conditions): 6.0 ± 0.8 pA
